C[C@@H]1CC[C@@]2(OC1)O[C@H]1C[C@H]3[C@@H]4CC=C5C[C@@H](O)CC[C@]5(C)[C@H]4CC[C@]3(C)[C@H]1[C@@H]2C
Conditions	solubility (mole fraction)
in ethanol, 289.15 K	0.00106
in ethanol, 301.05 K	0.00147
in ethanol, 305.75 K	0.0017
in ethanol, 312.35 K	0.00188
in ethanol, 312.65 K	0.00196
in ethanol, 316.65 K	0.00227
in ethanol, 320.25 K	0.00253
in ethanol, 322.35 K	0.00269
in ethanol, 324.05 K	0.0029
in ethanol, 325.65 K	0.00306
in ethanol, 327.65 K	0.00324
in ethanol, 329.05 K	0.00338
in ethanol, 331.25 K	0.00353
in ethanol, 332.35 K	0.00372
in ethanol, 334.15 K	0.00388
in isobutanol, 305.15 K	0.00236
in isobutanol, 306.95 K	0.00266
in isobutanol, 307.65 K	0.00296
in isobutanol, 308.65 K	0.00332
in isobutanol, 310.15 K	0.00364
in isobutanol, 311.65 K	0.00416
in isobutanol, 312.95 K	0.00456
in isobutanol, 313.85 K	0.00499
in isobutanol, 314.85 K	0.0054
in isobutanol, 316.15 K	0.00582
in isobutanol, 317.65 K	0.00625
in isobutanol, 319.65 K	0.00672
in isobutanol, 320.65 K	0.0071
in isobutanol, 322.15 K	0.00754
in isobutanol, 323.85 K	0.00797
in isobutanol, 325.15 K	0.00836
in isobutanol, 326.95 K	0.00884
in isobutanol, 328.65 K	0.00931
in isobutanol, 330.65 K	0.00979
in isooctanol, 296.55 K	0.0073
in isooctanol, 298.55 K	0.00809
in isooctanol, 299.75 K	0.0091
in isooctanol, 303.15 K	0.00992
in isooctanol, 305.65 K	0.0106
in isooctanol, 307.15 K	0.0114
in isooctanol, 309.25 K	0.012
in isooctanol, 311.85 K	0.0129
in isooctanol, 314.65 K	0.0139
in isooctanol, 315.95 K	0.0146
in isooctanol, 318.25 K	0.0154
in isooctanol, 321.05 K	0.0163
in isooctanol, 323.25 K	0.017
in isooctanol, 324.95 K	0.0177
in isooctanol, 326.55 K	0.0185
in isooctanol, 327.45 K	0.0192
in isooctanol, 329.75 K	0.0199
in n-butanol, 295.75 K	0.00469
in n-butanol, 298.15 K	0.0052
in n-butanol, 300.15 K	0.00572
in n-butanol, 304.65 K	0.00624
in n-butanol, 307.65 K	0.00659
in n-butanol, 309.65 K	0.00694
in n-butanol, 311.55 K	0.00731
in n-butanol, 312.65 K	0.00767
in n-butanol, 314.25 K	0.00805
in n-butanol, 315.85 K	0.0084
in n-butanol, 317.35 K	0.00914
in n-butanol, 319.15 K	0.00956
in n-butanol, 320.65 K	0.00996
in n-butanol, 323.45 K	0.0105
in n-butanol, 325.45 K	0.011
in n-butanol, 326.45 K	0.0114
in n-butanol, 328.45 K	0.012
in n-pentanol, 290.75 K	0.00406
in n-pentanol, 292.75 K	0.00455
in n-pentanol, 296.15 K	0.00507
in n-pentanol, 299.65 K	0.00566
in n-pentanol, 301.55 K	0.00615
in n-pentanol, 304.15 K	0.00663
in n-pentanol, 307.65 K	0.00722
in n-pentanol, 309.85 K	0.00775
in n-pentanol, 312.45 K	0.00838
in n-pentanol, 314.45 K	0.00888
in n-pentanol, 316.75 K	0.00933
in n-pentanol, 317.35 K	0.00978
in n-pentanol, 318.75 K	0.0105
in n-pentanol, 320.65 K	0.0111
in n-pentanol, 322.65 K	0.0116
in n-pentanol, 324.15 K	0.0123
in n-pentanol, 325.75 K	0.0128
in n-pentanol, 327.15 K	0.0134
in n-pentanol, 329.15 K	0.0139
in n-propanol, 290.15 K	0.00163
in n-propanol, 292.95 K	0.00205
in n-propanol, 295.55 K	0.00243
in n-propanol, 301.75 K	0.00278
in n-propanol, 305.25 K	0.00307
in n-propanol, 307.95 K	0.0034
in n-propanol, 310.95 K	0.0039
in n-propanol, 314.75 K	0.00424
in n-propanol, 318.15 K	0.00473
in n-propanol, 320.05 K	0.00506
in n-propanol, 322.75 K	0.00542
in n-propanol, 326.35 K	0.0059
in n-propanol, 327.85 K	0.00622
in n-propanol, 329.25 K	0.00663
in n-propanol, 330.65 K	0.00696
in n-propanol, 332.65 K	0.0073
in tert-butanol, 302.15 K	0.000811
in tert-butanol, 304.65 K	0.00108
in tert-butanol, 306.65 K	0.00134
in tert-butanol, 308.15 K	0.00151
in tert-butanol, 310.65 K	0.00175
in tert-butanol, 312.15 K	0.00198
in tert-butanol, 313.65 K	0.00223
in tert-butanol, 314.15 K	0.00244
in tert-butanol, 315.95 K	0.00274
in tert-butanol, 317.75 K	0.00307
in tert-butanol, 321.15 K	0.00343
in tert-butanol, 323.15 K	0.00368
in tert-butanol, 325.15 K	0.00392
in tert-butanol, 326.65 K	0.00427
in tert-butanol, 328.65 K	0.00467
in tert-butanol, 330.75 K	0.00497
in tert-butanol, 332.45 K	0.00529

— BigSolDB 2.1
